The record followed here is patent US7390804B2, “N-containing five-membered ring compounds and pharmaceutical agents comprising the same as active ingredient” (Ono Pharmaceutical Co., Ltd., priority 2000, dated 2008).

One assay deals with T1, Cathepsin K (Homo sapiens, UniProt P43235).
T1 sequence (P43235 115-329): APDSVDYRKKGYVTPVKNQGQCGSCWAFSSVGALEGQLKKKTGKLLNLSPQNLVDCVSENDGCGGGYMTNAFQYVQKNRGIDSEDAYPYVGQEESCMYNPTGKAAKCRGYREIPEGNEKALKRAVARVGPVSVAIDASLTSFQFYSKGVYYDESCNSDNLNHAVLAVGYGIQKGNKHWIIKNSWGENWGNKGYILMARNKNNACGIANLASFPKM
Put plainly: Measurement of Cathepsin K inhibitory activity. The assay is classed as biochemical. To be noted: Dixon plot, pH 5.5, 37° C. As for the experimental part:
(i) Measurement of Cathepsin K Inhibitory Activity
65 μL of Cathepsin K enzyme reaction buffer (50 mmol/L of 2-(N-morpholino)ethanesulfonate, 2 mmol/L of ethylenediamine tetraacetate (EDTA) and 4 mmol/L of dithiothreitol (DTT) were mixed to adjust to pH 5.5), 5 μL of cysteine protease inhibitor solution of several concentrations, 20 μL of synthesized substrate (t-butyloxycarbonyl-L-alanyl-glycyl-L-prolyl-L-arginine-4-methyl-chromanyl-7-amide) solution of several concentrations and 10 μL of cathepsin K enzyme solution were mixed and the increase of fluorescence intensity when reacted at 37° C. was measured (λ ex (excitation wavelength)=355 nm, λ em (fluorescence wavelength)=460 nm). As to the substrate and the compound of the present invention, enzyme reactions were carried out in combination of several appropriate concentrations and Dixon plotting was prepared, to define the absolute value of X-coordinate of the intersection point of the graph as Ki value.

The next assay has as its target cathepsin S (Homo sapiens, UniProt P25774). The experiment in a line: Measurement of Cathepsin S inhibitory activity. The assay is classed as biochemical. To be noted: pH 6.5, 37° C. As for the experimental part: (iii) Measurement of Cathepsin S Inhibitory Activity
10 μL of synthesized substrate (carbobenzoxy-L-leucyl-L-leucyl-L-arguinine-4-methyl-chromanyl-7-amide) solution and 5 μL of cysteine protease inhibitor solution of several concentrations, 75)L of cathepsin S enzyme reaction buffer (100 mmol/L of sodium phosphate, 2 mmol/L of EDTA, 2 mmol/L of DTT were mixed to adjust to pH 6.5) and 10 μL of cathepsin S enzyme solution were mixed and the increase of fluorescence intensity was measured (λ ex(excitation wavelength)=355 nm, λ em (fluorescence wavelength)=460 nm) when reacted at 37° C.

Chain of cathepsin S (P25774 115-331, species assumed): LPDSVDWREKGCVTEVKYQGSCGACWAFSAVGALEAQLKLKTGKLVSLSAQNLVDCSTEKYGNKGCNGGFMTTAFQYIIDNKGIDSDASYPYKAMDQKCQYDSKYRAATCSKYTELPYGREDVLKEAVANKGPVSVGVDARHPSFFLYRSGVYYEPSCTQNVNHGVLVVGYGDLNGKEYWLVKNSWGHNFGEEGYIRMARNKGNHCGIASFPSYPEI

For the compound `CC(C)C[C@H](NC(=O)[C@H](CC(C)C)NC(=O)OCc1ccccc1)C(=O)Cn1nnc(-c2c(F)c(F)c(F)c(F)c2F)n1` [example 1(40), 2(S)-N-[3(S)-1-(5-(perfluorophenyl)tetrazol-2-yl)-2-oxo-5-methyl-3-hexyl]-2-benzyloxycarbonylamino-4-methylpentanamide], on Cathepsin K, the Ki turned out to be 21 nM.
With `CC(C)C[C@H](NC(=O)[C@H](CC(C)C)NC(=O)OCc1ccccc1)C(=O)Cn1c(-c2ccc(F)cc2)noc1=O` [example 3(7), 2(S)-N-[3(S)-1-(5-oxo-3-(4-fluorophenyl)-1,2,4-oxadiazolin-4-yl)-2-oxo-5-methyl-3-hexyl]-2-benzyloxycarbonylamino-4-methylpentanamide], on Cathepsin K, the Ki worked out at 36 nM.
`CC(C)C[C@H](NC(=O)[C@H](CC(C)C)NC(=O)OCc1ccccc1)C(=O)Cn1nc(CCc2ccccc2)oc1=O` [example 3(17), 2(S)-N-[3(S)-1-(5-oxo-2-(2-phenylethyl)-1,3,4-oxadiazolin-4-yl)-2-oxo-5-methyl-3-hexyl]-2-benzyloxycarbonylamino-4-methylpentanamide]: the inhibition at 1 µM against cathepsin S came to 90%.
